Laboratory results taken from patent US20180021323A1, “FLIP - A SELECTIVE MOLECULAR TARGET OF SENESCENT CELLS” (BIOVENTURES, LLC, priority 2015, published 2018).

Key:
[1] = tested on: normal (NC) WI38 cells; test: Cell viability of normal (NC) WI38 cells, 72 h treatment; assay type: cell-based; conditions: for LD50 (NC): normal (NC) WI38 cells, viable cells determined 72 h after treatment
Procedure: The expression of FLIP in normal (NC) and IR-induced senescent (SC) WI38 cells was determined by Western blot 24 h after they were treated with vehicle (VEH) or Drox (10 μM). […] IR-induced senescent (SC) WI38 cells were treated with vehicle (VEH) or Drox (10 μM) for 6 h and the expression of FLIP mRNA in these cells was determined by qPCR. […] Viable cells were determined 72 h after normal (NC) and IR-induced senescent (SC) WI38 cells were treated with vehicle (VEH) or increasing concentrations of Drox. The data are presented as a percentage of control cells treated with VEH. […] Normal (NC) and IR-induced senescent (SC) WI38 cells were treated with vehicle (VEH), Drox (10 μM), PL (10 μM), and EF-24 (10 μM) for 24 h and the expression of FLIP in these cells was determined by Western blots. […] Viable cells were determined 72 h after normal (NC) and IR-induced senescent (SC) WI38 cells were treated with vehicle (VEH) or increasing concentrations of Drox, PL, and EF-24. LD50 values for these molecules against NC and SC were calculated and presented.

[2] = tested on: IR-induced senescent (SC) WI38 cells; test: Cell viability of IR-induced senescent (SC) WI38 cells, 72 h treatment; assay type: cell-based, human; conditions: for LD50 (SC): IR-induced senescent (SC) WI38 cells, viable cells determined 72 h after treatment; for killing of IR-induced senescent (SC) WI38 cells (viable cells, % of vehicle control): increasing concentrations, 72 h
Procedure: (§1) The expression of FLIP in normal (NC) and IR-induced senescent (SC) WI38 cells was determined by Western blot 24 h after they were treated with vehicle (VEH) or Drox (10 μM). Treatment with droxinostat (Drox) down-regulates the expression of FLIP mRNA in IR-induced senescent (SC) WI38 cells (FIG. 3B). IR-induced senescent (SC) WI38 cells were treated with vehicle (VEH) or Drox (10 μM) for 6 h and the expression of FLIP mRNA in these cells was determined by qPCR. […] Viable cells were determined 72 h after normal (NC) and IR-induced senescent (SC) WI38 cells were treated with vehicle (VEH) or increasing concentrations of Drox. The data are presented as a percentage of control cells treated with VEH. Treatment with droxinostat (Drox), piperlongumine (PL) and EF-24 down-regulates the expression of FLIP in IR-induced senescent (SC) WI38 cells (FIG. 3E). Normal (NC) and IR-induced senescent (SC) WI38 cells were treated with vehicle (VEH), Drox (10 μM), PL (10 μM), and EF-24 (10 μM) for 24 h and the expression of FLIP in these cells was determined by Western blots. […] Viable cells were determined 72 h after normal (NC) and IR-induced senescent (SC) WI38 cells were treated with vehicle (VEH) or increasing concentrations of Drox, PL, and EF-24. LD50 values for these molecules against NC and SC were calculated and presented.

[3] = tested on: FLIP; test: FLIP protein expression by Western blot in IR-induced senescent WI38 cells; assay type: cell-based, human; conditions: 10 μM, 24 h
Excerpt: Treatment with doxycycoline (DOX) dose-dependently induces FLIP-shRNA expression in WI38 cell line after the cells were stably transfected with a plasmid containing FLIP-shRNA and red fluorescent protein (RFP) genes (FIG. 2A). Induction of FLIP-shRNA by doxycycoline down-regulates FLIP expression in IR-induced senescent WI38 cells stably transfected with FLIP-shRNA but not in vector transfected cells (FIG. 2B).
as §1

[4] = tested on: FLIP mRNA; test: FLIP mRNA expression by qPCR in IR-induced senescent WI38 cells; assay type: cell-based, human; conditions: 10 μM, 6 h
Procedure: as §1

SMILES: O=C1/C(=C/c2ccccc2F)CNC/C1=C\c1ccccc1F [EF-24]
- LD50 (NC) [1]: 6.08 µM
- LD50 (SC) [2]: 1.05 µM
- killing of IR-induced senescent (SC) WI38 cells (viable cells, % of vehicle control) [2]: selectively kill
- expression of FLIP (Western blot, FIG. 3E) [3]: down-regulates

SMILES: COc1cc(/C=C/C(=O)N2CCC=CC2=O)cc(OC)c1OC [Piperlongumine, piperlongumine]
- LD50 (NC) [1]: 24.25 µM
- LD50 (SC) [2]: 7.05 µM
- killing of IR-induced senescent (SC) WI38 cells (viable cells, % of vehicle control) [2]: selectively kill
- expression of FLIP (Western blot, FIG. 3E) [3]: down-regulates

SMILES: Cc1cc(Cl)ccc1OCCCC(=O)NO [Droxinostat, 4-(4-chloro-2-methylphenoxy)-N-hydroxybutanamide]
- effect on normal (NC) WI38 cells (viable cells, % of vehicle control) ([1]; increasing concentrations, 72 h): minimal effect
- LD50 (NC) [1]: 39.58 µM
- expression of FLIP mRNA (qPCR, FIG. 3B) [4]: down-regulates
- LD50 (SC) [2]: 8.26 µM
- killing of IR-induced senescent (SC) WI38 cells (viable cells, % of vehicle control) [2]: selectively kill
- expression of FLIP (Western blot, FIG. 3A) [3]: down-regulated
- expression of FLIP (Western blot, FIG. 3E) [3]: down-regulates
